Data taken from patent US12441709B2, “Therapeutic compounds” (INDIVIOR UK LIMITED, priority 2016, dated 2025).
Where two headings read alike, the source gives them in different places. No end group written: not given here.

Tests used:
human OX1 receptor [1] = target: T1, human OX1 receptor (Homo sapiens, UniProt O43613); experiment: Ox1 antagonist FLIPR assay (calcium, orexin A at EC75); format: cell-based; settings: CHO cells expressing human OX1; at least four replicates; read-out: hOX1 pIC50 (converted)
T1 construct: expressed in transfected cells; host or cells: CHO cells
T1 sequence (O43613 1-425): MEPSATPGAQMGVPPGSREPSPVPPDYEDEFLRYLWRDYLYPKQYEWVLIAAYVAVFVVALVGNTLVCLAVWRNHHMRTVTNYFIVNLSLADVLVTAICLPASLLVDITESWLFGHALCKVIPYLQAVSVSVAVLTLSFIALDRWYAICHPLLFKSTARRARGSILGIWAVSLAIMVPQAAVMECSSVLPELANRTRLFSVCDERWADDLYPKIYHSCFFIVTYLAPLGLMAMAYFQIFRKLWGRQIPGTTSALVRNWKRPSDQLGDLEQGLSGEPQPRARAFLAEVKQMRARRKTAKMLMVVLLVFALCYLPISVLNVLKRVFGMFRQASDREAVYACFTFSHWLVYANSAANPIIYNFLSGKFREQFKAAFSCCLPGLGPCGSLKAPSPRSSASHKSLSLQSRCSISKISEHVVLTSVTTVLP
Text: (§1) Antagonism against orexin receptors has been measured for each example compound using at least one of the following procedures. Antagonism is reported as a pIC50, where pIC50=−log10(IC50) and where IC50 is the concentration of example compound needed to inhibit 50% of the agonist response. These values may fluctuate depending on the daily cellular assay performance. Fluctuations of this kind are known to those skilled in the art. All reported values are the result of at least four replicate experiments. Ox2 values are only reported from dose response curves for which the top concentration is at least 10 μM.
(§2) Ox1 and Ox2 Antagonist FLIPR Assay: […]
(§3) The next day media is removed and replaced with 30 μL/well of cell loading buffer (a vial of Calcium 5 is solubilized in 20 mL of assay buffer) and the cells incubated for 1 hr at 37° C. The serially diluted test compounds (10 μL/well) are added to the cell plate by the FLIPR Tetra and the addition is monitored for 5 min by the instrument. […] Finally 10 μL of orexin Ain assay buffer+0.1% (w/v) bovine serum albumin is dispensed by the FLIPR Tetra at an EC75 concentration determined for each receptor on the day of the assay. Fluorescence is measured at excitation and emission wavelengths of 485 nm and 525 nm, respectively and data analyzed using Graph Pad Prism for the EC75 value of orexin A and Aplus to determine a pIC50 value for each test compound. […]

human OX2 receptor [2] = target: T2, human OX2 receptor (Homo sapiens, UniProt O43614); experiment: Ox2 antagonist FLIPR assay (calcium, orexin A at EC75); format: cell-based; settings: CHO cells expressing human OX2; top concentration at least 10 μM; at least four replicates; read-out: hOX2 pIC50 (converted)
T2 construct: expressed in transfected cells; host or cells: CHO cell line (membranes)
T2 sequence (O43614 1-444): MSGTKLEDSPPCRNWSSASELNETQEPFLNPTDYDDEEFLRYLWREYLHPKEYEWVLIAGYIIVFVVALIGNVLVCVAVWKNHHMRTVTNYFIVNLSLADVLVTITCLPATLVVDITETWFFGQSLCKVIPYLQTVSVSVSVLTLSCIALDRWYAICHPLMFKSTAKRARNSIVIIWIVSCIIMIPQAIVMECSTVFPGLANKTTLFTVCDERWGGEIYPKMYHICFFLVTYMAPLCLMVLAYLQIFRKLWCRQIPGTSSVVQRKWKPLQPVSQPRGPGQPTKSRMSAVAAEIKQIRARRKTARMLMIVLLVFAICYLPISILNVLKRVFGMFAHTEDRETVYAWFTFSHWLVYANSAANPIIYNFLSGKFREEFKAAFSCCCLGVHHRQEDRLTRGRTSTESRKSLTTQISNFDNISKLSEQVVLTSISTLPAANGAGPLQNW
Text: as §1, §2, §3

human OX1 receptor [3] = target: T1, human OX1 receptor; experiment: Orexin 1 receptor radioligand binding assay ([3H]-SB674042 competition); settings: CHO membranes, 1 nM [3H]-SB674042, 90 min room temperature; read-out: hOX1 pKi (converted)
Experimental: Orexin 1 Receptor Radioligand Binding Assay:
Cell membranes were prepared from the human OX1 receptor expressing CHO cell line. The harvested cell pellets were homogenized in ice-cold buffer (15 mM TrisHCl (pH 7.5), 2 mM MgCl2, 0.3 mM EDTA, 1 mM EGTA, Sigma protease inhibitor cocktail) and centrifuged at 41,000 g for 20 min at 4° C. After discarding the supernatants the pellets were re-suspended in the before mentioned buffer followed by homogenization and another centrifugation. Obtained pellets were re-suspended in ice cold buffer containing 75 mM TrisHCl (pH 7.5), 12.5 mM MgCl2, 0.3 mM EDTA, 1 mM EGTA, 250 mM sucrose and a protease inhibitor cocktail (Sigma). After protein quantification with the Pierce Protein Assay Kit, using BSA as standard, the membrane homogenates were aliquoted and frozen down at […] until further use.
(§4) Expression levels of the Ox1 receptor (Bmax) were determined by saturation binding and the Kd of the radioligand [^3H]SB674042 was determined by association and dissociation kinetics. Data were elaborated with Graph Pad Prism using radioligand binding analysis. Steady state binding was reached after 90 min of incubation at room temperature. […]

human OX2 receptor [4] = target: T2, human OX2 receptor; experiment: Orexin 2 receptor radioligand binding assay ([3H]-EMPA competition); settings: CHO membranes, 2 nM [3H]-EMPA, 60 min room temperature; read-out: hOX2 pKi (converted)
Experimental: Orexin 2 Receptor Radioligand Binding Assay:
Cell membranes were prepared from the human Ox2 receptor expressing CHO cell line. The harvested cell pellets were homogenized in ice-cold buffer (15 mM TrisHCl (pH 7.4), 2 mM MgCl2, 0.3 mM EDTA, 1 mM EGTA, Sigma FAST™ protease inhibitor cocktail) and centrifuged at 45,000 rpm for 30 min at 4° C. After discarding the supernatants the pellets were re-suspended in the before mentioned buffer followed by homogenization and another centrifugation. Obtained pellets were re-suspended in ice cold buffer containing 75 mM TrisHCl (pH 7.5), 12.5 mM MgCl2, 0.3 mM EDTA, 1 mM EGTA, 250 mM sucrose and a Sigma FAST TM protease inhibitor cocktail. After protein quantification with the Pierce Protein Assay Kit, using BSA as standard, the membrane homogenates were aliquoted and frozen down at […] until further use.
as §4, with “Ox2” for “Ox1”, “[^3H]EMPA” for “[^3H]SB674042”, “60” for “90”

human Orexin 1 receptor = target: T3, human Orexin 1 receptor (Homo sapiens, UniProt O43613); experiment: Kinetics of competitive binding (Motulsky and Mahan analysis), Orexin 1 receptor; settings: for Ki: read-out: pKi (M&M) (converted)
T3 construct: expressed in transfected cells
T3 sequence (O43613 1-425): T1 sequence (O43613 1-425)
Experimental: (§5) Kinetics of Competitive Binding (Motulski and Mahan's Analysis):
(§6) Motulsky and Mahan characterisation of the Examples was performed as described by Faedo et al., European Journal of Pharmacology 692(2012), p. 1-9 with the following modifications:
(§7) The association binding experiment was initiated by addition of membranes expressing the human Orexin 1 receptor at different times to the incubation buffer containing 1 nM of [^3H] SB674042. Non-specific binding was determined in the presence of 10 μM of SB674042. The association of the radioligand to the orexin receptor was performed as described for the kinetics experiment in the presence of the competing test compounds. The competing test compounds were assayed at three concentrations corresponding to 3, 10 and 30 fold of the determined Ki. For kinetic binding studies of the human Orexin 2 receptor, the method described for the Orexin 1 receptor was used with modifications that membranes expressing the human Orexin 2 receptor were incubated in buffer containing 1 nM of [3H] EMPA and non-specific binding was determined in the presence of 10 μM ACT-078573.

human Orexin 2 receptor = target: T4, human Orexin 2 receptor (Homo sapiens, UniProt O43614); experiment: Kinetics of competitive binding (Motulsky and Mahan analysis), Orexin 2 receptor; settings: mean of 3 studies (n=3); for Ki: 1 nM [3H] EMPA, read-out: pKi (M&M) (converted)
T4 construct: expressed in transfected cells
T4 sequence (O43614 1-444): T2 sequence (O43614 1-444)
Experimental: as §5, §6, §7
The results for the Orexin-2 Receptor studies are the mean of the results from 3 studies (n=3) for both Example compounds.

orexin-1 (OX1) = target: T5, orexin-1 (OX1) (Homo sapiens, UniProt O43613); settings: affinity of OxA relative to OxB at OX1; literature reference (2); cited from earlier work
T5 sequence (O43613 1-425): T1 sequence (O43613 1-425)

[5] = further test results (Example 1 n = 3, Example 2 n = 1)
[6] = mean of all results (Example 1 n = 5, Example 2 n = 3)
[7] = mean of initial results (n = 2)

Compound | IC50 (human OX1 receptor [1]) | IC50 (human OX2 receptor [2]) | Ki (human OX1 receptor [3]) | Ki (human OX2 receptor [4]) | dissociation half-life (human Orexin 1 receptor; [5]) | koff (human Orexin 1 receptor; [5]) | kon (human Orexin 1 receptor; [5]) | tR (human Orexin 1 receptor; [5]) | Ki (human Orexin 1 receptor; [5]) | dissociation half-life (human Orexin 1 receptor; [6]) | koff (human Orexin 1 receptor; [6]) | kon (human Orexin 1 receptor; [6]) | tR (human Orexin 1 receptor; [6]) | Ki (human Orexin 1 receptor; [6]) | dissociation half-life (human Orexin 1 receptor; [7]) | koff (human Orexin 1 receptor; [7]) | kon (human Orexin 1 receptor; [7]) | tR (human Orexin 1 receptor; [7]) | Ki (human Orexin 1 receptor; [7]) | Ki (human Orexin 2 receptor) | other results
Cc1ccc(-n2nccn2)c(C(=O)N(C)[C@@H](C)CNc2cnc(C(F)(F)F)cn2)n1 [Example 1, N,6-dimethyl-3-(2H-1,2,3-triazol-2-yl)-N-[(2S)-1-{[5-(trifluoromethyl)pyrazin-2-yl]amino}propan-2-yl]pyridine-2-carboxamide] | 0.794 nM | 1000 nM | 1 nM | 251 nM | 1.73 h | 0.000117 s⁻¹ | 146000 M⁻¹ s⁻¹ | 150 min | 0.794 nM | 2.83 h | 8.33e-05 s⁻¹ | 140000 M⁻¹ s⁻¹ | 245 min | 0.501 nM | 4.13 h | 5e-05 s⁻¹ | 130000 M⁻¹ s⁻¹ | 357 min | 0.316 nM | 316 nM | dissociation half-life (human Orexin 2 receptor): 4.1 min; koff (human Orexin 2 receptor): 0.00352 s⁻¹; kon (human Orexin 2 receptor): 10800 M⁻¹ s⁻¹; tR (human Orexin 2 receptor): 5.9 min
Cc1ccc(-n2nccn2)c(C(=O)N(C)[C@@H](C)CNc2ncc(C(F)(F)F)cn2)n1 [Example 2, N,6-dimethyl-3-(2H-1,2,3-triazol-2-yl)-N-[(2S)-1-{[5-(trifluoromethyl)pyrimidin-2-yl]amino}propan-2-yl]pyridine-2-carboxamide] | 1.26 nM | 2000 nM | 1.58 nM | 794 nM | 1 h | 0.000183 s⁻¹ | 78000 M⁻¹ s⁻¹ | 87 min | 2.51 nM | 1.08 h | 0.000183 s⁻¹ | 76200 M⁻¹ s⁻¹ | 93 min | 2.51 nM | 1.12 h | 0.000167 s⁻¹ | 75300 M⁻¹ s⁻¹ | 96 min | 2.51 nM | 1580 nM | dissociation half-life (human Orexin 2 receptor): 4.3 min; koff (human Orexin 2 receptor): 0.00298 s⁻¹; kon (human Orexin 2 receptor): 1830 M⁻¹ s⁻¹; tR (human Orexin 2 receptor): 6.2 min
OxA: neuropeptide Orexin-A, a 33 amino acid polypeptide, agonist on OX1 and OX2 receptors (QPLPDCCRQKTCSCRLYELLHGAGNHAAGILTL; not fully specified (residue 1, C-terminus, bridges); cysteine pairing not given here; UniProt O43612 34-66, looked up) | – | – | – | – | – | – | – | – | – | – | – | – | – | – | – | – | – | – | – | – | higher affinity than OxB (orexin-1 (OX1)): > 10 fold
